Data taken from patent US7439362B2, “Piperazinyl-or piperidinylamine-sulfamic acid amides as inhibitors of steroid sulfatase” (Novartis AG, priority 2002, dated 2008).

What was measured:
[1] = biological target: T1, purified human steroid sulfatase (Homo sapiens, UniProt P08842); assay: Assay of Human Steroid Sulfatase (4-methylumbelliferyl sulfate cleavage, fluorescence); type: biochemical; conditions: purified human placental enzyme; 4-methylumbelliferyl sulfate substrate; 37° C., 1 hour
T1 construct: Human placenta is obtained freshly after delivery; from tissue; host or cells: human placenta (microsomes, Triton X-100 extract, chromatographically purified)
T1 sequence (P08842 22-583): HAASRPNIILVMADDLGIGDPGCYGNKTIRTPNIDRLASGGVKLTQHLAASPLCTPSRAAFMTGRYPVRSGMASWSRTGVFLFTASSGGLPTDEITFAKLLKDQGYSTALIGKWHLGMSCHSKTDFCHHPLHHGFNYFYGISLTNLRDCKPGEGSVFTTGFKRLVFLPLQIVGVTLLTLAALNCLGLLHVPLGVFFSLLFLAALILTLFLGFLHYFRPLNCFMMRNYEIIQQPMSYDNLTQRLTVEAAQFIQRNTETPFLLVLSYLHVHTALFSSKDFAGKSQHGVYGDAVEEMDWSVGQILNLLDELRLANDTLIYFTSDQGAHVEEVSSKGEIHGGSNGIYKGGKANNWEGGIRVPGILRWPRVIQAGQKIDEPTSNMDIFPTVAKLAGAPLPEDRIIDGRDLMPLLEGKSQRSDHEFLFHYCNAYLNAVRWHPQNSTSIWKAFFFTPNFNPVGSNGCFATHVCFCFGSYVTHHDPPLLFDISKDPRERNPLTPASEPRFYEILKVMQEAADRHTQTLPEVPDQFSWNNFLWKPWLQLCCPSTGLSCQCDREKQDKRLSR
Procedure: Human placenta is obtained freshly after delivery and stripped of membranes and connective tissues. For storage, the material is frozen at −70° C. After thawing, all further steps are carried out at 4° C., while pH values are adjusted at 20° C. 400 g of the tissue is homogenized in 1.2 l of buffer A (50 mM Tris-HCl, pH 7.4, 0.25 M sucrose). The homogenate obtained is centrifuged at 10,000×g for 45 minutes. The supernatant is set aside and the pellet obtained is re-homogenized in 500 ml of buffer A. After centrifugation, the two supernatants obtained are combined and subjected to ultracentrifugation (100,000×g, 1 hour). The pellet obtained is resuspended in buffer A and centrifugation is repeated. The pellet obtained is suspended in 50 ml of 50 mM Tris-HCl, pH 7.4 and stored at −20° C. until further work-up. […]
It is known that purified human steroid sulfatase not only is capable to cleave steroid sulfates, but also readily cleaves aryl sulfates such as 4-methylumbelliferyl sulfate which is used in the present test system as an activity indicator. […]
Plates are incubated at 37° C. for 1 hour. […] Fluorescence intensity is determined in a Titertek Fluoroskan. […]
[formula] wherein I100 is the intensity observed in the absence of inhibitor and s is a slope factor. Estrone sulfamate is used as a reference compound and its IC50 value is determined in parallel to all other test compounds. […]

[2] = biological target: T2, steroid sulfatase in human skin homogenate (Homo sapiens, UniProt P08842); assay: Assay Using Human Skin Homogenate ([3H]DHEAS cleavage); type: biochemical; conditions: human cadaver skin homogenate; DHEAS substrate; 18 hrs at 37° C.
T2 construct: Frozen specimens of human cadaver skin; from tissue; host or cells: human cadaver skin, minced and suspended in Triton X-100 buffer
T2 sequence (P08842 22-583): T1 sequence (P08842 22-583)
Procedure: Frozen specimens of human cadaver skin (about 100 mg per sample) are minced Into small pieces (about 1×1 mm) using sharp scissors. The pieces obtained are suspended in ten volumes (w/w) of buffer (20 mM Tris-HCl, pH 7.5), containing 0.1% Triton X-100. Test compounds (e.g. compounds of the present invention) are added at graded concentrations from stock solutions In ethanol or DMSO. Second, DHEAS as the substrate is added (1 μC/ml [^3H]DHEAS, specific activity: about 60 Ci/mmol, and 20 μM unlabeled DHEAS).
Samples are incubated for 18 hrs at 37° C. At the end of the Incubation period, 50 μl of 1 M Tris, pH 10.4 and 3 ml of toluene are added. A 1-ml aliquot of the organic phase is removed and subjected to liquid scintillation counting. The determined dpm-values in the aliquots are converted to nmol of DHEA cleaved per g of skin per hour.

| IC50 [2] [µM] | melting point [°C] | SMILES | IC50 [1] [µM] |
| --- | --- | --- | --- |
| – | – | CC12CCC3c4ccc(OS(N)(=O)=O)cc4CCC3C1CCC2=O (stereo not drawn) [estrone sulfamate] | ~0.06 |
| 0.03 to 0.27 | 192 to 195 | NC(=O)c1ccc(C(F)(F)F)cc1N1CCC(NS(=O)(=O)NC(=O)c2cc(C(F)(F)F)cc(C(F)(F)F)c2)CC1 [Example 1, N-[[4-[1-(2-Aminocarbonyl-5-trifluoromethyl-phenyl)]-piperidinyl]-amino]-sulfonyl-3,5-bis-trifluoromethyl-benzamide] | – |
